# Measured values: US12060387B2, “Polypeptide-based shuttle agents for improving the transduction efficiency of polypeptide cargos to the cytosol of target eukaryotic cells, uses thereof, methods and kits relating to same” (priority 2015, dated 2024)
# Read-outs that look alike come from different tables or passages of the source. Where no end group is shown, it is not given here.
# How the values were obtained:
# [1] = Cell toxicity / % cell viability by flow cytometry (cells in total events v. untreated); format: cell-based, Human; details: human, HeLa cells, HeLa, GFP-NLS 5 μM; for viability at 10 s, 35 µM: shuttle 35 μM; for viability at 10 s, 50 µM: shuttle 50 μM
# Description: (§2) The fluorescence of GFP was quantified using flow cytometry (Accuri C6, Becton, Dickinson and Company (BD)). Untreated cells were used to establish a baseline in order to quantify the increased fluorescence due to the internalization of the fluorescent protein in treated cells. The percentage of cells with a fluorescence signal above the maximum fluorescence of untreated cells, “mean %” or “Pos cells (%)”, is used to identify positive fluorescent cells. “Relative fluorescence intensity (FL1-A)” corresponds to the mean of all fluorescence intensities from each cell with a fluorescent signal after fluorescent protein delivery with the shuttle agent. Also, the events scanned by flow cytometry corresponding to cells (size and granularity) were analyzed. The cellular toxicity (% cell viability) was monitored comparing the percentage of cells in the total events scanned of treated cells comparatively to untreated cells.
# [2] = test system: HeLa cells; assay: as above; format: cell-based, Human; details: HeLa, Protocol B, GFP-NLS 5 μM, 10 seconds
# Description: as §2
# [3] = as above; format: cell-based, human; details: human, THP-1 cells, Cell viability (%) (±St. Dev.; n = 3), THP-1; for viability at 15 s, 5 µM: shuttle 5 μM, 15 seconds
# Description: as §2
# [4] = test system: THP-1 cells; assay: as above; format: cell-based, human; details: THP-1, daily 150 min exposure with serum, shuttle 0.8 μM, GFP-NLS 1 μM
# Description: as §2
# [5] = Cell viability (%) by flow cytometry; format: cell-based; details: GFP-NLS 5 μM, read-out: Cell viability (%) (±St. Dev.; n = 3); for viability at 15 s, 5 µM: Protocol C, shuttle 5 μM, 15 seconds; for viability at 10 s, 35 µM: Protocol B, shuttle 35 μM, 10 seconds
# Protocol: (§1) The ability of the shuttle agent His-CM18-PTD4 to deliver GFP-NLS to the nuclei of different adherent and suspension cells using Protocols B (adherent cells) or C (suspension cells) as described in Example 9.1 was examined. The cell lines tested included: HeLa, Balb3T3, HEK 293T, CHO, NIH3T3, Myoblasts, Jurkat, THP-1, CA46, and HT2 cells, which were cultured as described in Example 1. GFP-NLS (5 μM; see Example 5.1) was co-incubated with 35 μM of His-CM18-PTD4 and exposed to adherent cells for 10 seconds (Protocol B), or was co-incubated with 5 μM of His-CM18-PTD4 and exposed to suspension cells for 15 seconds (Protocol C). […] “Pos cells (%)” is the mean percentages of all cells that emanate a GFP signal.
# [6] = Cell viability (%) by flow cytometry; format: cell-based, Chinese hamster; details: CHO cells, Protocol B, shuttle 35 μM, GFP-NLS 5 μM, 10 seconds, read-out: Cell viability (%) (±St. Dev.; n = 3)
# Protocol: as §1
# [7] = Cell viability (%) (±St. Dev.; n = 3), FIG. 22B, Protocol B, 10 seconds, read-out: Cell viability (%) (±St. Dev.; n = 3), FIG. 22B
sequence,measurement,setting,value
HHHHHHKWKLFKKIGAVLKVLTTGYARAAARQARA [His-CM18-PTD4],"viability at 1 h, 10 µM","[1]; Cell viability (%) (± St. Dev.; n = 3), Protocol A, shuttle 10 μM, 1 hour",96.4 ± 2.7%
same,"viability at 10 s, 35 µM","[1]; Cell viability (%) (± St. Dev.; n = 3), Protocol B, 10 seconds, read-out: Cell viability (%) (± St. Dev.; n = 3)",94.6 ± 0.4%
same,"viability at 10 s, 10 µM","[1]; Cell viability (%) (±St. Dev.; n = 3), FIG. 22B, Protocol B, shuttle 10 μM, 10 seconds",96.3 ± 2.3%
same,"viability at 10 s, 25 µM","[1]; Cell viability (%) (±St. Dev.; n = 3), FIG. 22B, Protocol B, shuttle 25 μM, 10 seconds",95.3 ± 3.7%
same,"viability at 10 s, 35 µM",[1]; [7],79.6 ± 5.9%
same,"viability at 10 s, 50 µM",[1]; [7],69.2 ± 2.7%
same,"viability at 10 s, 50 µM","[1]; Cell viability (%) (±St. Dev.; n = 3), FIG. 29A, Protocol B, 10 seconds, read-out: Cell viability (%) (±St. Dev.; n = 3), FIG. 29A",92 ± 3.6%
same,"viability at 1 min, 10 µM","[1]; Cell viability (%) (±St. Dev.; n = 3), FIG. 29B, Protocol B, shuttle 10 μM, incubation 1 min., read-out: Cell viability (%) (±St. Dev.; n = 3), FIG. 29B",97.6 ± 2.7%
same,"viability at 2 min, 10 µM","[1]; Cell viability (%) (±St. Dev.; n = 3), FIG. 29B, Protocol B, shuttle 10 μM, incubation 2 min., read-out: Cell viability (%) (±St. Dev.; n = 3), FIG. 29B",80.9 ± 3.2%
same,"viability at 5 min, 10 µM","[1]; Cell viability (%) (±St. Dev.; n = 3), FIG. 29B, Protocol B, shuttle 10 μM, incubation 5 min., read-out: Cell viability (%) (±St. Dev.; n = 3), FIG. 29B",66.2 ± 4.4%
same,"viability at 1 min, 20 µM","[1]; Cell viability (%) (±St. Dev.; n = 3), FIG. 29I, Protocol B, shuttle 20 μM, 1 minute, read-out: Cell viability (%) (±St. Dev.; n = 3), FIG. 29I",81.6 ± 4.5%
same,Cell viability (%) (±St. Dev.; n = 3),[2]; shuttle 35 μM,94.6 ± 0.4%
same,"Cell viability (%) (±St. Dev.; n = 3), FIG. 29E",[2]; shuttle 50 μM,92 ± 3.6%
same,"viability at 1 h, 1 µM","[3]; FIG. 31, Protocol A, shuttle 1 μM, GFP-NLS 5 μM, 1 hour",96.9 ± 3.6%
same,viability at 0.5 µM,"[3]; FIG. 31, Protocol C, shuttle 0.5 μM, GFP-NLS 5 μM",82.1 ± 2.7%
same,"viability at 15 s, 5 µM","[3]; FIG. 31, Protocol C, GFP-NLS 5 μM, read-out: Cell viability (%) (±St. Dev.; n = 3), FIG. 31",64 ± 4.1%
same,"viability at 15 s, 1 µM","[3]; Protocol C, shuttle 1 μM, GFP-NLS 5 μM, incubation time 15 sec, read-out: Cell viability (%) (±St. Dev.; n = 3)",90 ± 3%
same,"viability at 0.5 min, 1 µM","[3]; Protocol C, shuttle 1 μM, GFP-NLS 5 μM, incubation time 30 sec, read-out: Cell viability (%) (±St. Dev.; n = 3)",89 ± 1.1%
same,"viability at 1 min, 1 µM","[3]; Protocol C, shuttle 1 μM, GFP-NLS 5 μM, incubation time 60 sec, read-out: Cell viability (%) (±St. Dev.; n = 3)",85.3 ± 3.6%
same,"viability at 2 min, 1 µM","[3]; Protocol C, shuttle 1 μM, GFP-NLS 5 μM, incubation time 120 sec, read-out: Cell viability (%) (±St. Dev.; n = 3)",74.3 ± 3.2%
same,"viability at 15 s, 5 µM","[3]; Protocol C, GFP-NLS 5 μM, read-out: Cell viability (%) (±St. Dev.; n = 3)",64.1 ± 4.5%
same,"viability at 24 h, 0.5 µM","[3]; daily 150 min exposure with serum, shuttle 0.5 μM, GFP-NLS 5 μM, exposure 1 day",98.2 ± 2.4%
same,"viability at 72 h, 0.5 µM","[3]; daily 150 min exposure with serum, shuttle 0.5 μM, GFP-NLS 5 μM, exposure 3 days",84.3 ± 3.8%
same,"viability at 24 h, 0.8 µM","[3]; daily 150 min exposure with serum, shuttle 0.8 μM, GFP-NLS 2.5 μM, exposure 1 day, read-out: Cell viability (%) (±St. Dev.; n = 3)",92.3 ± 1.9%
same,"viability at 72 h, 0.8 µM","[3]; daily 150 min exposure with serum, shuttle 0.8 μM, GFP-NLS 2.5 μM, exposure 3 days, read-out: Cell viability (%) (±St. Dev.; n = 3)",68.5 ± 2.2%
same,Cell viability (%) (±St. Dev.; n = 3),[4]; exposure 1 day,98.4 ± 6.4%
same,Cell viability (%) (±St. Dev.; n = 3),[4]; exposure 3 days,80.6 ± 4.6%
same,"viability at 15 s, 5 µM","[5]; human, CA46 cells",71.6 ± 1%
same,"viability at 10 s, 35 µM","[5]; human, HEK 293T cells",95.3 ± 1.2%
same,"viability at 15 s, 5 µM","[5]; human, Jurkat cells",73.6 ± 0.7%
same,"viability at 10 s, 35 µM","[5]; human, Myoblasts",23.5 ± 1.1%
same,"viability at 10 s, 35 µM","[5]; mouse, Balb3T3 cells",98.4 ± 0.6%
same,"viability at 15 s, 5 µM","[5]; mouse, HT2 cells",90.6 ± 1.5%
same,"viability at 10 s, 35 µM","[5]; mouse, NIH3T3 cells",3.3 ± 5.4%
same,"viability at 10 s, 35 µM",[6],92.8 ± 0.1%
